Experimental data as given in EP0225272A1, “1-Methyl-15-alpha-alkyl-androsta-1,4-diene-3,17-diones, process for their preparation and pharmaceutical compositions containing them” (SCHERING AKTIENGESELLSCHAFT, priority 1985, dated 1987).

Experiments:
Östruszyklus der Ratte = test: Influence of aromatase inhibitors on the estrous cycle of the rat (Allen-Doisy smear technique); format: in vivo, Ratten (SPF-Wistar)
From the text: In einem weiteren Test wird der Einfluß von Aromatasehemmern auf den Östruszyklus der Ratte bestimmt.
Die Substanzen, die die Östrogenbiosynthese bzw. die Wirkung von Östrogenen hemmen, führen zu einer Störung des Östruszyklus bei Nagern.
Verwendet werden weibliche Ratten (SPF-Wistar) von ca. 180 g Körpergewicht. Pro Gruppe werden 10 Tiere eingesetzt. Der Zyklus wird mittels der Allen-Doisy-Abstrichtechnik täglich untersucht. Es werden zwei aufeinanderfolgende Zyklen verfolgt. Nur Tiere mit einem regelmäßigen 4-Tage-Zyklus kommen in den Versuch. Am Tage des Metöstrus werden die Tiere einmal mit der Testsubstanz (20 mg/Tier) subcutan behandelt. Die Testsubstanz wird dabei in einer 0.9%igen Kochsalzlösung mit Myrj-53^(R) (0.085%) suspendiert (0,5 ml/Dosis). Die Kontrolltiere werden nicht behandelt. Der Versuch wird beendet. wenn alle behandelten Tiere wieder normale Zyklen aufweisen.

Aromataseaktivität = target: T1, Aromataseaktivität (Rattus norvegicus, UniProt P22443); test: PMSG test: serum estradiol in PMSG-pretreated infantile female rats (radioimmunoassay); format: in vivo, Ratte; conditions: for Östradiol-Konzentration: peripheral serum, PMSG-pretreated rat, mean ± SD, n=10
T1 construct: Infantile weibliche Ratten reagieren auf PMSG (Pregnant Mare's Serum Gonadotropin)-Behandlung mit einheitlich erhöhter Steroidsynthese; from tissue; host or cells: living infantile female rats (in vivo); serum estradiol measured by radioimmunoassay
T1 sequence (P22443 1-508): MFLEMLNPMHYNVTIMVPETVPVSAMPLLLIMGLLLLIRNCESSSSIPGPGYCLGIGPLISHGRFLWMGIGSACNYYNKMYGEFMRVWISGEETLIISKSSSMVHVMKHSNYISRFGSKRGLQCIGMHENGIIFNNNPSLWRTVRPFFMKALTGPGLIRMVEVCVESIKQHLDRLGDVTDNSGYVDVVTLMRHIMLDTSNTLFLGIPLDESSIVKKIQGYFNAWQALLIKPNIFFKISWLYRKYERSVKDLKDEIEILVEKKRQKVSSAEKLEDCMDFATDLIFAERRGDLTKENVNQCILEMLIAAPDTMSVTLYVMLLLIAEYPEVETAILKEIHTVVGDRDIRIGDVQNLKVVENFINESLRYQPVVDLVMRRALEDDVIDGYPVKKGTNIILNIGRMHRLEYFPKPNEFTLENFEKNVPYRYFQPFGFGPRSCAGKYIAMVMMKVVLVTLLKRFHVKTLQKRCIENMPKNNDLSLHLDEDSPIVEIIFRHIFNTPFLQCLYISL
Procedure: Infantile weibliche Ratten reagieren auf PMSG (Pregnant Mare's Serum Gonadotropin)-Behandlung mit einheitlich erhöhter Steroidsynthese. Die Aromataseaktivität kann durch die Beeinflussung der PMSG-stimulierten Ostrogenbildung gemessen werden.
Im sogenannten PMSG-Test werden 21 Tage alte weibliche Ratten alle 2 Tage insgesamt 7 mal mit je 100 I.U. PMSG subkutan vorbehandelt. 1 Stunde vor und 8 Stunden nach der letzten PMSG-Applikation (d12) erhalten die Tiere die Testsubstanz in 0,1 ml Benzylbenzoat/Rizinusöl (1+9) durch subkutane Injektion. Die Kontrolltiere erhalten nur das Vehikel. 24 Stunden nach der letzten PMSG-Applikation werden die Tiere getötet. Im Serum wird Östradiol radioimmunologisch geprüft. Für jede Gruppe von 10 Tieren wird der Mittelwert der Östradiolkonzentration in nMol/1 mit der Standardabweichung errechnet. Die Signifikanzen der Unterschiede zur Kontrollgruppe werden durch die Varianzanalyse geprüft.
Zur Ermittlung der relativen Wirkungsstärke der zu testenden Substanz im Vergleich zu der Standardsubstanz wird die Regressions- und Kovarianzanalyse durchgeführt. Ferner wird die prozentuale Hemmung gegen die PMSG-Kontrolle berechnet.

| Compound | Dauer der Störung des Zyklus (Durchschnitt) (Östruszyklus der Ratte; single s.c. 20 mg/Tier, average) | Zykluslänge der meisten behandelten Tiere (Östruszyklus der Ratte; single s.c. 20 mg/Tier, untreated animals regular 4-day cycle) | Wirkung auf den Zyklus (Östruszyklus der Ratte; single s.c. treatment 20 mg/Tier at metestrus, effect starts right after treatment) | Dosis, mit der eine Hemmung der Östradiol-Konzentration beobachtet wird (Aromataseaktivität; lowest dose with inhibition, given 2 x s.c.) | Östradiol-Konzentration (Aromataseaktivität; dose 0,1 mg/Tier 2 x s.c.) | Östradiol-Konzentration (Aromataseaktivität; dose 0,3 mg/Tier 2 x s.c.) | Östradiol-Konzentration (Aromataseaktivität; dose 1,0 mg/Tier 2 x s.c.) | Östradiol-Konzentration (Aromataseaktivität; dose 3,0 mg/Tier 2 x s.c.) |
| --- | --- | --- | --- | --- | --- | --- | --- | --- |
| CCCC(=O)OC(C)C1CC(=O)C2(C)CCC3C(CCC4=CC(=O)C=C(C)C43C)C12 (stereo not drawn) [C, 15a-(1S-Butyryloxy-ethyl)-1-methyl-androsta-1.4-dien-3,17-dion] | ~15 Tage | 5-Tage-Zyklus | Störung des Zyklus |  |  |  |  |  |
| C[C@]12CCC(=O)C(O)=C1CC[C@@H]1[C@@H]2CC[C@]2(C)C(=O)CC[C@@H]12 [A, 4-Hydroxy-4-androsten-3,17-dion] |  |  |  | 1,0 mg | 3,98 ± 1,12 nMol/l | 3,84 ± 0,84 nMol/l | 1,94 ± 0,62 nMol/l | 0,98 ± 0,19 nMol/l |
| CC(=O)O[C@@H](C)[C@H]1CC(=O)[C@@]2(C)CC[C@H]3[C@@H](CCC4=CC(=O)C=C(C)[C@@]43C)[C@H]12 [B] |  |  |  |  | 2,11 ± 0,39 nMol/l | 0,62 ± 0,13 nMol/l | 0,54 ± 0,07 nMol/l | 0,36 ± 0,06 nMol/l |
